Experimental data taken from patent US10906946B2, “Thrombin inhibitors” (priority 2015, dated 2021).
Peptide text beside a SMILES is read from it.

Experiments:
[1] = test system: other serine proteases (trypsin, fIXa, fXIa, fXa, chymotrypsin, tPA, fVIIa, plasmin, APC, kallikrein, urokinase, fXIIa); assay: Serine protease selectivity screen (amidolytic assays with chromogenic substrates); assay type: biochemical
Procedure: Avathrin was screened for its selectivity against 13 serine proteases including procoagulant, anticoagulant, fibrinolytic and classical serine proteases (thrombin, trypsin, fIXa, fXIa, fXa, chymotrypsin, tPA, fVIIa, plasmin, APC, kallikrien, urokinase and fXIIa). […]
Thrombin amidolytic activity assays for all peptides were performed in 96-wells microtiter plates in 50 mM Tris buffer (pH 7.4) containing 100 mM NaCl and 1 mg/ml bovine serum albumin. […] The rates of formation of p-nitroaniline were followed by measuring the absorbance at 405 nm for 10 min with a Tecan InfinitePro M200 microplate reader from Tecan (Männedorf, Switzerland). […] To measure the inhibitory constants, different concentrations of S2238 were used and the residual velocities were determined using the Morrison's tight binding equation. Inhibition of thrombin fibrinogenolytic activity of peptides were tested by measuring absorbance at 650 nm using a Sunrise microplate reader from Tecan (Männedorf, Switzerland) as described previously [Koh C Y, et al., J Biol Chem 282: 29101-13 (2007)]. […] Effects of avathrin on the amidolytic activities of these serine proteases were determined using respective chromogenic substrates. […]

[2] = test system: FeCl3-induced carotid artery thrombosis; assay: Ferric chloride-induced carotid artery thrombosis model; assay type: in vivo, C57BL/6 male mice; settings: mice, 10% FeCl3
Procedure: All animal experiments were carried out under protocol 041/12 approved by Institutional Animal Care and Use Committee, National University of Singapore. The ferric chloride induced carotid artery thrombosis model was performed as described previously [Eckly A, et al., J Thromb Haemost 9: 779-89 (2011)] with minor modifications. Typically, C57BL/6 male mice (9-11 weeks old, 24.5-27.5 g) were anesthetized with an intraperitoneal injection of ketamine (75 mg/kg) and medetomidine (1 mg/kg). 100 μL of different doses of avathrin were injected into the mice via tail vein. The right carotid artery was dissected using blunt dissection and a vascular injury was caused applying filter paper of 2 mm×2 mm saturated with FeCl3 on top of the carotid artery. After 3 min, the filter paper was removed and the vessel was washed with sterile normal saline. To determine the time to occlusion, a miniature Doppler flow probe (Transonic Systems Inc., Ithaca, N.Y., USA) was placed around the carotid artery and blood flow was recorded using a Transonic® flow meter from ADInstruments (Dunedin, New Zealand). The maximal time for monitoring the blood flow after injury was 30 min. Mice were euthanized by cervical dislocation immediately after the completion of the experiment and prior to recovery from anesthesia.

## CC[C@H](C)[C@H](NC(=O)[C@H](CCCCN)NC(=O)[C@@H]1CCCN1C(=O)[C@@H](NC(=O)[C@H](C)NC(=O)[C@@H](NC(=O)[C@H](CCC(N)=O)NC(=O)[C@H](Cc1c[nH]cn1)NC(=O)CNC(=O)CNC(=O)[C@@H](N)CO)[C@@H](C)O)C(C)C)C(=O)N[C@@H](CO)C(=O)N[C@@H](CCCCN)C(=O)N[C@@H](CCC(N)=O)C(=O)NCC(=O)N[C@@H](CC(C)C)C(=O)NCC(=O)NCC(=O)N[C@@H](CC(=O)O)C(=O)N[C@@H](Cc1ccccc1)C(=O)N[C@@H](CCC(=O)O)C(=O)N[C@@H](CCC(=O)O)C(=O)N[C@H](C(=O)N1CCC[C@H]1C(=O)N[C@@H](CO)C(=O)N[C@@H](CC(=O)O)C(=O)N[C@@H](CCC(=O)O)C(=O)N[C@H](C(=O)N[C@H](C(=O)N[C@@H](CCC(=O)O)C(=O)O)[C@@H](C)CC)[C@@H](C)CC)[C@@H](C)CC [Avathrin] (H-SGGHQTAVPKISKQGLGGDFEEIPSDEIIE-OH; N-terminus and C-terminus assumed)
[1]; 100 μM avathrin
  inhibition of other proteases: < 30%
[1]; thrombin versus other serine proteases
  selectivity preference for thrombin: at least four orders of magnitude
[2]; 3 mg/kg intravenously
  time to occlusion (TTO): 15.03 ± 3.23 min
[2]; 10 mg/kg intravenously
  time to occlusion (TTO): 22.51 ± 4.19 min
